Experimental data taken from US20200054671A1, “TREATMENT OF ANXIETY DISORDER AND AUGMENTATION OF ANTI-ANXIETY INTERVENTIONS BY ADMINISTRATION OF NOBLE GAS CONTAINING MIXTURES” (NOBILIS THERAPEUTICS, INC., priority 2016, published 2020).
Where “and” joins values, the source holds several entries; their conditions need not be identical. Equal entries are not always repeated.

What was measured:
[1] = tested on: patients with panic disorder; experiment: Hospital Anxiety and Depression Scale, depression subscale (HADS_D); type: in vivo, human; settings: for HADS_D: patients with “clinically severe depression”: end of the active phase of treatment
Procedure: (§1) This investigator-initiated study was performed under a prospective clinical trial protocol approved by the Institute of Mental Health and Addictology, which is accredited by the Ministry of Health of the Russian Federation to conduct clinical trials (#57689). Study conduct was in compliance with all ethical standards and good clinical practice. Ninety outpatients with a diagnosis of “panic disorder» (F41.0) according to ICD-10 were enrolled through the Institute of Mental Health and Addictology. Five patients dropped out of the study due to minor side effects, predominantly lightheadedness and headaches, and 4 patients dropped out of the study for unspecified reasons. As the intention to treat analysis was not utilized due to the open label design of the study, 81 patients with PD (49 women and 32 men), mean age was 35.2 years (range […]) were studied. Patients were randomized into 2 groups: with “pure” PD (group 1) and “comorbid” PD, when it was co-diagnosed with other mental illnesses (group 2). All patients with isolated PD (Group 1, n=42) received monotherapy with xenon at the aforementioned schedule, while the majority of patients (94.9%) with PD and comorbid conditions, which were predominantly depression (group 2, n=39), in addition to xenon administration continued treatment for comorbid psychiatric disorders, which mainly consisted of antidepressants (SSRIs and SNRIs). In these patients, the reason for xenon treatment was the increase in the frequency and severity of panic attacks despite ongoing treatment with stable pharmacotherapy of at least 3 to 6 months' duration.
(§2) Administration of xenon was performed through inhalation of xenon-oxygen mixtures that were escalated from 15%/85% to 30%/70% with titration increments of 5% per session. Each patient in the study underwent between 6 and 7 treatments with xenon-oxygen mixture. The first three sessions were carried out daily and from session 4 onward—every other day. The selected dosing regime and the composition of the gas mixtures were based on the historical evidence of safety of subanesthetic use of xenon in imaging.
Medical grade xenon (“medksenon»®, 99.9999%, manufacturer: Atommedcenter, Moscow, Russia) and medical grade oxygen in separate containers were admixed. […] The patients were assessed subjectively by the provider, while the vital signs (pulse, blood pressure, oxygen saturation) were continuously monitored.
Patients were evaluated after each xenon inhalation and at 30 and 180 days after completion of treatment. […]

[2] = tested on: patients with panic disorder; experiment: Clinical Global Impression Scale, improvement subscale (CGI-I); type: in vivo, human
Procedure: as §1, §2
(§3) Medical grade xenon (“medksenon»®, 99.9999%, manufacturer: Atommedcenter, Moscow, Russia) and medical grade oxygen in separate containers were admixed. Mixing and administration of gases in preset concentration and volume was accomplished with the use of the medical device MAGi-AMTS1, which enables the operator to adjust the concentration of xenon in the gas mixture, and which contains the electronic flow meter with a software module that allows for such adjustments. Administration of xenon-oxygen mixture to the patient was carried out via a face mask. Patients were asked to slowly inhale, holding breath for 5 to 10 seconds; exhale into the loop and after 35-40 seconds exhale outside the contour and breath in the new portion of gas mixture. Xenon inhalation lasted from 2.5 to 4 minutes, and the xenon consumption was capped at 3.0 liters per procedure. The patients were assessed subjectively by the provider, while the vital signs (pulse, blood pressure, oxygen saturation) were continuously monitored.
(§4) Patients were evaluated after each xenon inhalation and at 30 and 180 days after completion of treatment. To this end, we employed clinical psychopathological and clinical catamnestic methods, and psychometric scales that are widely used internationally to assess the treatment of mental disorders. Scale Assessment, Zung Self-Rating Anxiety Scale (SAS) was performed prior to starting therapy (V1), and at 1 and 6 months after treatment. According to this scale, SAS index of less than 45 points corresponds to the normal value, 45-59—to mild-to-moderate degree of anxiety, 60-74—to high degree of anxiety, more than 75—to an extremely high-level of anxiety. […]

[3] = cited from earlier work
[4] = biological target: NMDA receptor (Homo sapiens, UniProt Q05586); settings: glycine site of the NMDA receptor; cited from earlier work
[5] = tested on: patients with panic disorder; experiment: Frequency of major and minor panic attacks; type: in vivo, human; settings: for The frequency of major panic attacks 6 months after treatment, Mean / The frequency of major panic attacks 6 months after treatment, Median / Changes Minor Panic Attacs_V6_V1, Mean / Changes Minor Panic Attacs_V6_V1, Median / Changes_Major Panic Attacs_V6_V1, Mean / Changes_Major Panic Attacs_V6_V1, Median: per month; for Changes Minor Panic Attacs_V6_V1, Mean / Changes Minor Panic Attacs_V6_V1, Median / Changes_Major Panic Attacs_V6_V1, Mean / Changes_Major Panic Attacs_V6_V1, Median: vs before treatment
Procedure: as §1, §2, §3, §4

## [Xe] [xenon]
[1]; group 1, after 3 xenon treatments
  HADS_D: patients in whom “clinically severe depression” was absent: 90.5%
[1]; group 1
  HADS_D: patients with “clinically severe depression”: 2.4%
[1]; group 2, after 3 xenon treatments
  HADS_D: patients in whom “clinically severe depression” was present: 82.1%
[1]; group 2
  HADS_D: patients with “clinically severe depression”: 46.2%
[2]; Total (n = 81)
  CGI-I, V2: Marked deterioration, share of patients: 1.2%
  CGI-I, V2: Marked improvement, share of patients: 12.3%
  CGI-I, V2: Minimal deterioration, share of patients: 1.2%
  CGI-I, V2: Minimal improvement, share of patients: 54.3%
  CGI-I, V2: No changes, share of patients: 30.9%
  CGI-I, V3: Marked improvement, share of patients: 25.9%
  CGI-I, V3: Minimal improvement, share of patients: 61.7%
  CGI-I, V3: No changes, share of patients: 12.3%
  CGI-I, V4: Marked improvement, share of patients: 54.3%
  CGI-I, V4: Minimal improvement, share of patients: 40.7%
  CGI-I, V4: No changes, share of patients: 4.9%
  CGI-I, V5: Marked improvement, share of patients: 79.0%
  CGI-I, V5: Minimal improvement, share of patients: 18.5%
  CGI-I, V5: Very marked improvement, share of patients: 2.5%
  CGI-I, V6: Marked improvement, share of patients: 66.7%
  CGI-I, V6: Very marked improvement, share of patients: 33.3%
[2]; «Comorbid PD» (n = 39)
  CGI-I, V2: Marked deterioration, share of patients: .0%
  CGI-I, V2: Marked improvement, share of patients: 12.8%
  CGI-I, V2: Minimal deterioration, share of patients: .0%
  CGI-I, V2: Minimal improvement, share of patients: 61.5%
  CGI-I, V2: No changes, share of patients: 25.6%
  CGI-I, V3: Minimal improvement, share of patients: 69.2%
  CGI-I, V3: No changes, share of patients: 20.5%
  CGI-I, V4: Marked improvement, share of patients: 25.6%
  CGI-I, V4: Minimal improvement, share of patients: 64.1%
  CGI-I, V4: No changes, share of patients: 10.3%
  CGI-I, V5: Marked improvement, share of patients: 61.5%
  CGI-I, V5: Minimal improvement, share of patients: 38.5%
  CGI-I, V5: Very marked improvement, share of patients: .0%
  CGI-I, V6: Marked improvement, share of patients: 87.2%
[2]; «Comorbid PD» (n = 39), after 6 treatments
  CGI-I, V6: Very marked improvement, share of patients: 12.8%
[2]; «Comorbid PD» (n = 39), after the third treatment
  CGI-I, V3: Marked improvement, share of patients: 10.3%
[2]; «Pure PD» (n = 42)
  CGI-I, V2: Marked deterioration, share of patients: 2.4%
  CGI-I, V2: Marked improvement, share of patients: 11.9%
  CGI-I, V2: Minimal deterioration, share of patients: 2.4%
  CGI-I, V2: Minimal improvement, share of patients: 47.6%
  CGI-I, V2: No changes, share of patients: 35.7%
  CGI-I, V3: Minimal improvement, share of patients: 54.8%
  CGI-I, V3: No changes, share of patients: 4.8%
  CGI-I, V4: Marked improvement, share of patients: 81.0%
  CGI-I, V4: Minimal improvement, share of patients: 19.0%
  CGI-I, V4: No changes, share of patients: .0%
  CGI-I, V5: Marked improvement, share of patients: 95.2%
  CGI-I, V5: Minimal improvement, share of patients: .0%
  CGI-I, V5: Very marked improvement, share of patients: 4.8%
  CGI-I, V6: Marked improvement, share of patients: 47.6%
[2]; «Pure PD» (n = 42), after 6 treatments
  CGI-I, V6: Very marked improvement, share of patients: 52.4%
[2]; «Pure PD» (n = 42), after the third treatment
  CGI-I, V3: Marked improvement, share of patients: 40.5%
[3]; during inhalational anesthesia
  time at which end-expiratory xenon concentration reached a plateau: 7 min
  time to successful loading of xenon in the brain: approximately 15 minutes
[3]; inhalation
  half-time for equilibration between xenon concentration in arterial blood and at the site of action: 1.49 ± 0.04 min
[4]
  mechanism of inhibition of NMDA receptor activity: competitive inhibition of the co-agonist glycine
[5]; Total (n = 81)
  The frequency of minor panic attacks 6 months after treatment, Mean: .6 times/month
  The frequency of minor panic attacks 6 months after treatment, Median: .0 times/month
  The frequency of major panic attacks 6 months after treatment, Mean: .0
  The frequency of major panic attacks 6 months after treatment, Median: .0
  Changes Minor Panic Attacs_V6_V1, Mean: −42.7
  Changes Minor Panic Attacs_V6_V1, Median: −55.0
  Changes_Major Panic Attacs_V6_V1, Mean: −9.6
  Changes_Major Panic Attacs_V6_V1, Median: −7.0
[5]; both groups
  “major” panic attacks 6 months after treatment: absent
[5]; conclusion from HADS_T, CGI-I, CGI-S
  panic attacks after the 6th treatment: complete cessation of panic attacks
[5]; «Comorbid PD» (n = 39)
  The frequency of minor panic attacks 6 months after treatment, Mean: 1 times/month and 1.0 times/month
  The frequency of minor panic attacks 6 months after treatment, Median: .0 times/month
  The frequency of major panic attacks 6 months after treatment, Mean: .0
  The frequency of major panic attacks 6 months after treatment, Median: .0
  Changes Minor Panic Attacs_V6_V1, Mean: −40.7
  Changes Minor Panic Attacs_V6_V1, Median: −40.0
  Changes_Major Panic Attacs_V6_V1, Mean: −11.7
  Changes_Major Panic Attacs_V6_V1, Median: −12.0
[5]; «Pure PD» (n = 42)
  The frequency of minor panic attacks 6 months after treatment, Median: .0 times/month
  The frequency of major panic attacks 6 months after treatment, Mean: .0
  The frequency of major panic attacks 6 months after treatment, Median: .0
  Changes Minor Panic Attacs_V6_V1, Mean: −44.5
  Changes Minor Panic Attacs_V6_V1, Median: −55.0
  Changes_Major Panic Attacs_V6_V1, Mean: −7.7
  Changes_Major Panic Attacs_V6_V1, Median: −3.0
